Data from patent US20040152735A1, “NO-synthase inhibitors comprising N,N'-bis(2-pyridyl)methyl-N,N'-bis(3,4,5-trimethoxybenzyl) ethylenediamine” (SOCIETE L'OREAL, S.A., priority 2001, published 2004).

Target: T1, inducible NO-synthase (NO-synthase 2) (Homo sapiens, UniProt P35228)
T1 construct: positive control (induction of the enzyme): mixtures of interferon-(1000 U/ml) and of interleukin 1-(100 U/ml); endogenous in cells; 267(30), 21277-21280, 1992
Experiment: Inhibition of inducible NO-synthase (test of Heck et al.): nitrite/nitrate measured after stimulating NO-synthase 2 with interferon and interleukin 1
Type: cell-based
Method: The activity of N,N′-bis(2-pyridyl)methyl-N,N′-bis(3,4,5-trimethoxybenzyl)ethylenediamine on inducible NO-synthase was evaluated in the test described by Heck et al., (J.B.C., Vol. 267, No. 30, 21277-21280, Oct. 25, 1992).
The object of this test is to show the reduction in the concentration of nitrate and nitrite, ultimately, after stimulating NO-synthase 2.
The following controls were introduced into the tests:
A: positive control (induction of the enzyme): mixtures of interferon-(1000 U/ml) and of interleukin 1-(100 U/ml);
To determine the activity of the test product, the amount of stable NO reaction products (nitrites and nitrates) is measured using the “nitric calorimetric assay” kit marketed by Boehringer under the reference 1756.28.
N,N′-bis(2-pyridyl)methyl-N,N′-bis(3,4,5-trimethoxybenzyl) ethylenediamine was tested at concentrations of 10 μM, 50 μM and 100 μM in ethanol.

T1 sequence (P35228 whole entry, species assumed): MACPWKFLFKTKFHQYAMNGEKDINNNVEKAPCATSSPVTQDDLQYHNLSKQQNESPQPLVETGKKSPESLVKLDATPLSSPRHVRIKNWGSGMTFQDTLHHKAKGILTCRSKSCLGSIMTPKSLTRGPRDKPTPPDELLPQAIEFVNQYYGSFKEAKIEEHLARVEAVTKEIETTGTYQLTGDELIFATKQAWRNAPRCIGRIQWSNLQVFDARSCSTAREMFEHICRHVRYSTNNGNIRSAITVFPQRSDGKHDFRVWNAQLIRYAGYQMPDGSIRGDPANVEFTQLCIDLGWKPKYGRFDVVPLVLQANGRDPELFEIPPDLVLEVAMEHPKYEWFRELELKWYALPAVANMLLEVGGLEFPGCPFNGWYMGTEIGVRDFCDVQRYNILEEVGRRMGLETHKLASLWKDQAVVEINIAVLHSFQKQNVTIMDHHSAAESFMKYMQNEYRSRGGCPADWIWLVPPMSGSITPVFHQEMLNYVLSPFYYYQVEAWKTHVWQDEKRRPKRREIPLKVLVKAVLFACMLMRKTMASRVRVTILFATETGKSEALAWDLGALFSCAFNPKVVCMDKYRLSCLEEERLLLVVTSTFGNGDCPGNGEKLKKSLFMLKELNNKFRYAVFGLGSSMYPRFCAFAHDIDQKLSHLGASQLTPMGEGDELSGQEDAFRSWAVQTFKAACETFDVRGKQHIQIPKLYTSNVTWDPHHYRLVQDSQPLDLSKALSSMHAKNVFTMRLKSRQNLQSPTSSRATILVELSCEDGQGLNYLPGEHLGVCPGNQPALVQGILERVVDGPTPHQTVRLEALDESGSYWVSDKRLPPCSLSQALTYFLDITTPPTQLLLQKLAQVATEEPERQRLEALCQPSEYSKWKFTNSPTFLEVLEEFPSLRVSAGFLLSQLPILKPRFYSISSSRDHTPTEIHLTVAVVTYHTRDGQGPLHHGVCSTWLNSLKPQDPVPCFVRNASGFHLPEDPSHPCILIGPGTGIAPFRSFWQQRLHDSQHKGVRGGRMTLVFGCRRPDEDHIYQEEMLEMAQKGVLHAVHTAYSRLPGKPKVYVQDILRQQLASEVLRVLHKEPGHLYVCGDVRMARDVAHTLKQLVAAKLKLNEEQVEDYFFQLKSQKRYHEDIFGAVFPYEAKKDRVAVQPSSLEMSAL

Compound COc1cc(CN(CCN(Cc2cc(OC)c(OC)c(OC)c2)Cc2ccccn2)Cc2ccccn2)cc(OC)c1OC [N,N′-bis(2-pyridyl)methyl-N,N′-bis(3,4,5-trimethoxybenzyl)ethylenediamine] has an inhibition at 10 µM (10 μM in ethanol, nitrites and nitrates after induction with interferon (1000 U/ml) and interleukin 1 (100 U/ml)) of 18.8%, an inhibition at 50 µM (50 μM in ethanol, nitrites and nitrates after induction with interferon (1000 U/ml) and interleukin 1 (100 U/ml)) of 48.3% and an inhibition at 100 µM (100 μM in ethanol, nitrites and nitrates after induction with interferon (1000 U/ml) and interleukin 1 (100 U/ml)) of 62%. For the same compound, the “effect on inducible NO-synthase (in words)” value (conclusion from the test at 10-100 μM) was “has an inhibitory effect on inducible NO-synthase”.
